Laboratory results: PubChem BioAssay AID2060496 (Molecular Pharmacology Branch, DTP, NCI, 2025)

System: 276233-004-R-J1-PDC complex spheroid viability
Experiment: Anticancer human tumor 276233-004-R-J1-PDC patient-derived colon adenocarcinoma cell line growth inhibition [GQUAD]
Conditions: for IC50: curve of first compound; for viability, T/C: stronger effect = lower value
Method in brief: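 Multi-cell-type spheroids of tumor cells with HUVEC and mesenchymal stem cells, treated with drug combinations. Concentrations descend in half-log steps from near clinical Cmax, or from 10 microM where Cmax is unknown; viability read-out.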

[1] = second compound 0.0316 µM, first compound 0.000999 µM
[2] = second compound 0.0316 µM, first compound 0.00316 µM
[3] = second compound 0.0316 µM, first compound 0.00999 µM
[4] = second compound 0.0316 µM, first compound 0.0316 µM
[5] = second compound 0.0316 µM, first compound 0.0999 µM
[6] = second compound 0.0316 µM, first compound 0.316 µM
[7] = second compound 0.1 µM, first compound 0.000999 µM
[8] = second compound 0.1 µM, first compound 0.00316 µM
[9] = second compound 0.1 µM, first compound 0.00999 µM
[10] = second compound 0.1 µM, first compound 0.0316 µM
[11] = second compound 0.1 µM, first compound 0.0999 µM
[12] = second compound 0.1 µM, first compound 0.316 µM
[13] = second compound 0.316 µM, first compound 0.000999 µM
[14] = second compound 0.316 µM, first compound 0.00316 µM
[15] = second compound 0.316 µM, first compound 0.00999 µM
[16] = second compound 0.316 µM, first compound 0.0316 µM
[17] = second compound 0.316 µM, first compound 0.0999 µM
[18] = second compound 0.316 µM, first compound 0.316 µM
[19] = second compound 1 µM, first compound 0.000999 µM
[20] = second compound 1 µM, first compound 0.00316 µM
[21] = second compound 1 µM, first compound 0.00999 µM
[22] = second compound 1 µM, first compound 0.0316 µM
[23] = second compound 1 µM, first compound 0.0999 µM
[24] = second compound 1 µM, first compound 0.316 µM
[25] = second compound 3.16 µM, first compound 0.000999 µM
[26] = second compound 3.16 µM, first compound 0.00316 µM
[27] = second compound 3.16 µM, first compound 0.00999 µM
[28] = second compound 3.16 µM, first compound 0.0316 µM
[29] = second compound 3.16 µM, first compound 0.0999 µM
[30] = second compound 3.16 µM, first compound 0.316 µM
[31] = second compound 10 µM, first compound 0.000999 µM
[32] = second compound 10 µM, first compound 0.00316 µM
[33] = second compound 10 µM, first compound 0.00999 µM
[34] = second compound 10 µM, first compound 0.0316 µM
[35] = second compound 10 µM, first compound 0.0999 µM
[36] = second compound 10 µM, first compound 0.316 µM
[37] = second compound 0.0316 µM, first compound 0.1 µM
[38] = second compound 0.0316 µM, first compound 1 µM
[39] = second compound 0.0316 µM, first compound 3.16 µM
[40] = second compound 0.0316 µM, first compound 10 µM
[41] = second compound 0.1 µM, first compound 0.1 µM
[42] = second compound 0.1 µM, first compound 1 µM
[43] = second compound 0.1 µM, first compound 3.16 µM
[44] = second compound 0.1 µM, first compound 10 µM
[45] = second compound 0.316 µM, first compound 0.1 µM
[46] = second compound 0.316 µM, first compound 1 µM
[47] = second compound 0.316 µM, first compound 3.16 µM
[48] = second compound 0.316 µM, first compound 10 µM
[49] = second compound 1 µM, first compound 0.1 µM
[50] = second compound 1 µM, first compound 1 µM
[51] = second compound 1 µM, first compound 3.16 µM
[52] = second compound 1 µM, first compound 10 µM
[53] = second compound 3.16 µM, first compound 0.1 µM
[54] = second compound 3.16 µM, first compound 1 µM
[55] = second compound 3.16 µM, first compound 3.16 µM
[56] = second compound 3.16 µM, first compound 10 µM
[57] = second compound 10 µM, first compound 0.1 µM
[58] = second compound 10 µM, first compound 1 µM
[59] = second compound 10 µM, first compound 3.16 µM
[60] = second compound 10 µM, first compound 10 µM
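Also: spheroids exposed to drugs for seven days.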
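For viability, T/C in this document: 100% = DMSO vehicle control viability.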

Compound: CCc1c2c(nc3ccc(O)cc13)-c1cc3c(c(=O)n1C2)COC(=O)[C@]3(O)CC + CN(C)c1ccc(Nc2c3ccc(NC(=O)CCN4CCCC4)cc3nc3cc(NC(=O)CCN4CCCC4)ccc23)cc1
- IC50 (second compound 0.0316 µM): > 316 nM
- IC50 (second compound 0.1 µM): > 316 nM
- IC50 (second compound 0.316 µM): > 316 nM
- IC50 (second compound 1 µM): > 316 nM
- IC50 (second compound 3.16 µM): < 0.999 nM
- IC50 (second compound 10 µM): < 0.999 nM
- viability, T/C [1]: 102%
- viability, T/C [2]: 104%
- viability, T/C [3]: 104%
- viability, T/C [4]: 105%
- viability, T/C [5]: 108%
- viability, T/C [6]: 117%
- viability, T/C [7]: 94.3%
- viability, T/C [8]: 84.9%
- viability, T/C [9]: 101%
- viability, T/C [10]: 107%
- viability, T/C [11]: 99.7%
- viability, T/C [12]: 117%
- viability, T/C [13]: 60.1%
- viability, T/C [14]: 71.1%
- viability, T/C [15]: 75.7%
- viability, T/C [16]: 76.4%
- viability, T/C [17]: 79.5%
- viability, T/C [18]: 91.8%
- viability, T/C [19]: 60.3%
- viability, T/C [20]: 50.9%
- viability, T/C [21]: 67.2%
- viability, T/C [22]: 71.6%
- viability, T/C [23]: 70%
- viability, T/C [24]: 89.7%
- viability, T/C [25]: 50.8%
- viability, T/C [26]: 46.4%
- viability, T/C [27]: 72.6%
- viability, T/C [28]: 70.8%
- viability, T/C [29]: 75.3%
- viability, T/C [30]: 70.4%
- viability, T/C [31]: 44%
- viability, T/C [32]: 55.1%
- viability, T/C [33]: 59.1%
- viability, T/C [34]: 65.9%
- viability, T/C [35]: 78.5%
- viability, T/C [36]: 76.4%

Compound: CC[C@@]1(O)C(=O)OCc2c1cc1n(c2=O)Cc2cc3c(CN(C)C)c(O)ccc3nc2-1 + Cc1[nH]c2ccc(F)cc2c1-c1nc2c3cccnc3c3ncccc3c2[nH]1
- IC50 (second compound 0.0316 µM): > 316 nM
- IC50 (second compound 0.1 µM): > 316 nM
- IC50 (second compound 0.316 µM): > 316 nM
- IC50 (second compound 1 µM): > 316 nM
- IC50 (second compound 3.16 µM): < 0.999 nM
- IC50 (second compound 10 µM): < 0.999 nM
- viability, T/C [1]: 83.1%
- viability, T/C [2]: 76.6%
- viability, T/C [3]: 80.8%
- viability, T/C [4]: 89.2%
- viability, T/C [5]: 92%
- viability, T/C [6]: 91.5%
- viability, T/C [7]: 93.4%
- viability, T/C [8]: 102%
- viability, T/C [9]: 102%
- viability, T/C [10]: 87%
- viability, T/C [11]: 88.2%
- viability, T/C [12]: 96.9%
- viability, T/C [13]: 78.7%
- viability, T/C [14]: 88.4%
- viability, T/C [15]: 82.7%
- viability, T/C [16]: 89.6%
- viability, T/C [17]: 99.6%
- viability, T/C [18]: 82.8%
- viability, T/C [19]: 71.2%
- viability, T/C [20]: 78.4%
- viability, T/C [21]: 76.2%
- viability, T/C [22]: 67.9%
- viability, T/C [23]: 58.2%
- viability, T/C [24]: 77.7%
- viability, T/C [25]: 48.4%
- viability, T/C [26]: 54.4%
- viability, T/C [27]: 48.5%
- viability, T/C [28]: 51.6%
- viability, T/C [29]: 61.9%
- viability, T/C [30]: 58.3%
- viability, T/C [31]: 46%
- viability, T/C [32]: 40.5%
- viability, T/C [33]: 53.9%
- viability, T/C [34]: 58%
- viability, T/C [35]: 50.7%
- viability, T/C [36]: 46.7%

Compound: COc1ccc([C@@H](O)c2cc(-c3ncnc4cc(N5CCOCC5)ccc34)c(F)cc2Cl)nn1 + Cc1cnc(CNC(=O)c2c(=O)c3ccc(N4CCCN(C)CC4)nc3n3c2sc2ccccc23)cn1
- IC50 (second compound 0.0316 µM): 8710 nM
- IC50 (second compound 0.1 µM): > 10000 nM
- IC50 (second compound 0.316 µM): 4400 nM
- IC50 (second compound 1 µM): 2530 nM
- IC50 (second compound 3.16 µM): 1770 nM
- IC50 (second compound 10 µM): 709 nM
- viability, T/C [4]: 75.2%
- viability, T/C [37]: 81.5%
- viability, T/C [6]: 79.3%
- viability, T/C [38]: 68.8%
- viability, T/C [39]: 60.6%
- viability, T/C [40]: 48.4%
- viability, T/C [10]: 78.7%
- viability, T/C [41]: 73.9%
- viability, T/C [12]: 70.2%
- viability, T/C [42]: 73.8%
- viability, T/C [43]: 69.6%
- viability, T/C [44]: 55.1%
- viability, T/C [16]: 74.4%
- viability, T/C [45]: 87.7%
- viability, T/C [18]: 83.9%
- viability, T/C [46]: 71%
- viability, T/C [47]: 55.1%
- viability, T/C [48]: 39.3%
- viability, T/C [22]: 73.6%
- viability, T/C [49]: 77.9%
- viability, T/C [24]: 75.2%
- viability, T/C [50]: 63%
- viability, T/C [51]: 47.4%
- viability, T/C [52]: 33.7%
- viability, T/C [28]: 69.2%
- viability, T/C [53]: 69.3%
- viability, T/C [30]: 70%
- viability, T/C [54]: 56.2%
- viability, T/C [55]: 43.1%
- viability, T/C [56]: 34%
- viability, T/C [34]: 65%
- viability, T/C [57]: 58.1%
- viability, T/C [36]: 70%
- viability, T/C [58]: 43.9%
- viability, T/C [59]: 43.2%
- viability, T/C [60]: 30.9%

Compound: COc1cccc2c1C(=O)c1c(O)c3c(c(O)c1C2=O)CC(O)(C(=O)CO)CC3OC1CC(N)C(O)C(C)O1 (stereo not drawn) + CN(C)c1ccc(Nc2c3ccc(NC(=O)CCN4CCCC4)cc3nc3cc(NC(=O)CCN4CCCC4)ccc23)cc1
- IC50 (second compound 0.0316 µM): > 10000 nM
- IC50 (second compound 0.1 µM): > 10000 nM
- IC50 (second compound 0.316 µM): > 10000 nM
- IC50 (second compound 1 µM): > 10000 nM
- IC50 (second compound 3.16 µM): < 31.6 nM
- IC50 (second compound 10 µM): > 10000 nM
- viability, T/C [4]: 88%
- viability, T/C [37]: 94.7%
- viability, T/C [6]: 77.5%
- viability, T/C [38]: 61.7%
- viability, T/C [39]: 43%
- viability, T/C [40]: 66.7%
- viability, T/C [10]: 102%
- viability, T/C [41]: 83.8%
- viability, T/C [12]: 72.8%
- viability, T/C [42]: 74.8%
- viability, T/C [43]: 60.6%
- viability, T/C [44]: 76.7%
- viability, T/C [16]: 80.6%
- viability, T/C [45]: 68.4%
- viability, T/C [18]: 67.9%
- viability, T/C [46]: 40.8%
- viability, T/C [47]: 63.1%
- viability, T/C [48]: 54.4%
- viability, T/C [22]: 55.8%
- viability, T/C [49]: 47%
- viability, T/C [24]: 53.2%
- viability, T/C [50]: 52.3%
- viability, T/C [51]: 63.5%
- viability, T/C [52]: 52.8%
- viability, T/C [28]: 49.6%
- viability, T/C [53]: 49.3%
- viability, T/C [30]: 56.8%
- viability, T/C [54]: 56.4%
- viability, T/C [55]: 59.4%
- viability, T/C [56]: 53.7%
- viability, T/C [34]: 48.6%
- viability, T/C [57]: 51.5%
- viability, T/C [36]: 55.7%
- viability, T/C [58]: 62.6%
- viability, T/C [59]: 50.5%
- viability, T/C [60]: 43.5%
